The test has as its system AP-1 induced transcriptional activity. Description: Cellular Transrepressional Assay: AP-1 luciferase reporter in PMA-activated A549 cells. Conditions: for Emax: A549, 7 h, read-out: AP-1 Max % inh (Cellular Transrepression Assay). It is filed as cell-based. The method, then:
Cellular Transrepressional Assay
To measure the ability of test molecules to inhibit AP-1 induced transcriptional activity we utilized an A549 cell which was stably transfected with a plasmid containing 7× AP-1 DNA binding sites (pAP-1-Luc plasmid, Stratagene Co. La Jolla, Calif.) followed by the gene for luciferase. Cells were activated with 10 ng/ml of […] (PMA) plus or minus test molecules for 7 hours. After 7 hours a luciferase reagent was added to measure luciferase enzymatic activity in the cell. After a 10 minute incubation of luciferase reagent with cells, luminescence was measured in a TopCount luminescence counter. Repression of AP-1 activity was calculated as the percentage decrease in the signal induced by PMA alone. Test molecules were analyzed in the concentration range from 0.1 nM to 40 μM. EC50s were determined by using standard curve fitting methods such as Excel fit (Microsoft Co.).
(A reporter such as luciferase makes a cellular process visible.)

Where [1] appears, read: Homo sapiens, maximum inhibition, Cellular Transrepression Assay.
[2] abbreviates: Homo sapiens, A549, Cellular Transrepression Assay.

Turning to `COc1ccc(Cc2csc(NC(=O)C(C)(C)C(c3ccccc3)c3ccc(OC)cc3)n2)cc1` (stereo not shown) [Example 288, 2,2-dimethyl-3-(4-(methyloxy)phenyl)-N-(4-((4-(methyloxy)phenyl)methyl)-1,3-thiazol-2-yl)-3-phenylpropanamide], the Emax under setting [1] was 62.2%. Under setting [2], this compound displayed an EC50 of 216 nM.

Consider `Cc1ccc(C(c2ccc(N3CCOCC3)cc2)C(C)(C)C(=O)Nc2nccs2)cc1` (stereo not shown) [Example 227, 2,2-dimethyl-3-(4-methylphenyl)-3-(4-(4-morpholinyl)phenyl)-N-1,3-thiazol-2-ylpropanamide], for which, under setting [1], the Emax was 43.7%. The compound also came in with an EC50 under setting [2] of 666 nM. In the case of `COc1ccc(Cc2csc(NC(=O)C(C)(C)C(c3ccccc3)c3ccc(O)cc3)n2)cc1` (stereo not shown) [Example 352], the Emax under setting [1] came out at 61.7%. Under setting [2], this compound displayed an EC50 of 118 nM.

Regarding `COc1ccc(-c2ccc(C(c3ccccc3)C(C)(C)C(=O)Nc3nccs3)cc2)cc1` (stereo not shown) [Example 374, 2,2-Dimethyl-3-(4′-(methyloxy)-4-biphenylyl)-3-phenyl-N-1,3-thiazol-2-ylpropanamide], the Emax under setting [1] is 39.7%. The EC50 under setting [2] was 121 nM.

Take `CC(C)(C(=O)Nc1nncs1)C(c1ccc(N2CCOCC2)cc1)c1cccc(F)c1` (single isomer, unassigned) [Example 255, 3-(3-fluroophenyl)-2,2-dimethyl-3-(4-(4-morpholinyl)phenyl)-N-1,3,4-thiadiazol-2-ylpropanamide]: under setting [1], the Emax is 43%. This compound also returned an EC50 under setting [2] of 10.2 nM. For `COc1cccc2sc(NC(=O)C(C)(C)C(c3ccccc3)c3ccccc3)nc12` [Example 46, 2,2-dimethyl-N-(4-(methyloxy)-1,3-benzothiazol-2-yl)-3,3-diphenylpropanamide], the Emax under setting [1] was 22.9%.

Turning to `COc1ccc(C(c2ccccc2)C(C)(C)C(=O)Nc2nc(Cc3ccc(-c4ccncc4)cc3)cs2)cc1` (stereo not shown) [Example 289, 2,2-dimethyl-3-(4-(methyloxy)phenyl)-3-phenyl-N-(4-((4-(4-pyridinyl)phenyl)methyl)-1,3-thiazol-2-yl)propanamide], the Emax under setting [1] turned out to be 71.6%. Moreover, the EC50 under setting [2] stood at 18.5 nM. In the case of `COc1cccc(C(c2ccccc2)C(C)(C)C(=O)Nc2nc(CCc3ccccc3)cs2)c1` (stereo not shown) [Example 97, 2,2-dimethyl-3-(3-(methyloxy)phenyl)-3-phenyl-N-(4-(2-phenylethyl)-,3-thiaozl-2-yl)propanamide], under setting [1], the Emax stood at 26.5%. Take `COc1ccc(C(c2ccc(OC)cc2)C(C)(C)C(=O)Nc2nc(Cc3ccc(-c4ccncc4)cc3)cs2)cc1` [Example 304, 2,2-dimethyl-3,3-bis(4-(methyloxy)phenyl)-N-(4-((4-(4-pyridinyl)phenyl)methyl)-1,3-thiazol-2-yl)propanamide]: the Emax under setting [1] came out at 74.5%. Under setting [2], this compound registered an EC50 of 19.9 nM. `CC(C)(C(=O)Nc1nccs1)C(c1ccccc1)c1ccc(O)c(F)c1` (stereo not shown) [Example 347, 3-(3-fluoro-4-hydroxyphenyl)-2,2-dimethyl-3-phenyl-N-1,3-thiazol-2-ylpropanamide] displayed an EC50 (Cellular Transrepression Assay) of 10.8 nM. For the same compound, for the setting “maximum inhibition, Cellular Transrepression Assay”, the “AP-1 Max % inh (Cellular Transrepression Assay)” value was determined as 55.26%. For `CC(C)(C(=O)Nc1nccs1)C(c1ccccc1)c1cccc(O)c1` (stereo not shown) [Example 197, 3-(3-hydroxyphenyl)-2,2-dimethyl-3-phenyl-N-1,3-thiazol-2-ylpropanamide], the Emax under setting [1] was 36.3%. Consider `CC(C)(C(=O)Nc1nc(Cc2ccc(-c3ccncc3)cc2)cs1)[C@@H](c1ccccc1)c1ccc(O)cc1` [Example 354, 3-(4-hydroxyphenyl)-2,2-dimethyl-3-phenyl-N-(4-((4-(4-pyridinyl)phenyl)methyl)-1,3-thiazol-2-yl)propanamide], for which the Emax under setting [1] stood at 71.8%. In addition, under setting [2], the midpoint of the response, the EC50, lay at 158 nM.

As to `COc1cccc(C(c2ccccc2)C(C)(C)C(=O)Nc2nc(Cc3ccc(-c4ccncc4)cc3)cs2)c1` (stereo not shown) [Example 305, 2,2-dimethyl-3-(3-(methyloxy)phenyl)-3-phenyl-N-(4-((4-(4-pyridinyl)phenyl)methyl)-1,3-thiazol-2-yl)propanamide], under setting [1], the Emax was determined as 84.2%. Under setting [2], this compound gave an EC50 of 22.5 nM. For the compound `COc1ccc(C(c2ccc(OC)cc2)C(C)(C)C(=O)Nc2nc(C(C)(C)C)cs2)cc1` [Example 74, N-(4-(1,1-dimethylethyl)-1,3-thiazol-2-yl)-2,2-dimethyl-3,3-bis(4-(methyloxy)phenyl)propanamide], under setting [1], the Emax came to 28.1%. Consider `COCc1ccc(-c2ccc(C(c3ccccc3)C(C)(C)C(=O)Nc3nncs3)cc2)cc1` (stereo not shown) [Example 408, 3-(4′-(methoxymethyl)-4-biphenylyl)-2,2-dimethyl-3-phenyl-N-1,3,4-thiadiazol-2-ylpropanamide], for which, under setting [1], the Emax was found to be 24.9%. Further, under setting [2], the EC50 is 39.8 nM. `CC(C)(C(=O)Nc1nncs1)C(c1ccccc1)c1ccc(O)c(F)c1` (stereo not shown) [Example 348, 3-(3-fluoro-4-hydroxyphenyl)-2,2-dimethyl-3-phenyl-N-1,3,4-thiadiazol-2-ylpropanamide]: under setting [1], the Emax was 54%. This compound also returned an EC50 under setting [2] of 120 nM. As for `COc1cccc(C(c2ccccc2)C(C)(C)C(=O)Nc2nc(C)c(C)s2)c1` (stereo not shown) [Example 94, N-(4,5-dimethyl-1,3-thiazol-2-yl)-2,2-dimethyl-3-(3-(methyloxy)phenyl)-3-phenylpropanamide], the Emax under setting [1] was found to be 35.4%. `COc1cccc(C(c2ccccc2)C(C)(C)C(=O)Nc2nc(C(C)(C)C)cs2)c1` (stereo not shown) [Example 96, N-(4-(1,1-dimethylethyl)-1,3-thiazol-2-yl)-2,2-dimethyl-3-(3-(methyloxy)phenyl)-3-phenylpropanamide]: the Emax under setting [1] came out at 37.1%. As for `CC(C)(C(=O)Nc1nccs1)[C@@H](c1ccccc1)c1ccc(O)c(Br)c1` [Example 350, (3S)-3-(3-bromo-4-hydroxyphenyl)-2,2-dimethyl-3-phenyl-N-1,3-thiazol-2-ylpropanamide], the Emax under setting [1] turned out to be 81.8%. The compound further showed an EC50 under setting [2] of 15 nM. On the same counts, the results for `CC(C)(C)NC(=O)c1ccc(-c2ccc(C(c3ccccc3)C(C)(C)C(=O)Nc3nncs3)cc2)cc1` (stereo not shown) [Example 424, N-tert-butyl-4′-(2,2-dimethyl-3-oxo-1-phenyl-3-(1,3,4-thiadiazol-2-ylamino)propyl)-4-biphenylcarboxamide] are 26.4% and 14.5 nM.

Take `CCOC(=O)c1sc(NC(=O)C(C)(C)C(c2ccc(O)cc2)c2ccc(O)cc2)nc1C` [Example 194, ethyl 2-((3,3-bis(4-hydroxyphenyl)-2,2-dimethylpropanoyl)amino)-4-methyl-1,3-thiazole-5-carboxylate]: the Emax under setting [1] came to 25.4%. Consider `CC(C)(C(=O)Nc1nccs1)C(c1ccccc1)c1ccc(O)c(F)c1` (stereo not shown) [Example 345, 3-(3-fluoro-4-hydroxyphenyl)-2,2-dimethyl-3-phenyl-N-1,3-thiazol-2-ylpropanamide], for which the EC50 (Cellular Transrepression Assay) came to 35.2 nM. Besides, the Emax under setting [1] worked out at 68.1%. Consider `COc1cccc(C(c2ccccc2)C(C)(C)C(=O)Nc2nc(-c3ccccc3)cs2)c1` (stereo not shown) [Example 95, 2,2-dimethyl-3-(3-(methyloxy)phenyl)-3-phenyl-N-(4-phenyl-1,3-thiaozl-2-yl)propanamide], for which, under setting [1], the Emax worked out at 36.2%.

As for `CC(C)(C(=O)Nc1nncs1)C(c1ccc(N2CCOCC2)cc1)c1cccc(F)c1` (stereo not shown) [Example 229, 3-(3-fluorophenyl)-2,2-dimethyl-3-(4-(4-morpholinyl)phenyl)-N-1,3,4-thiadiazol-2-ylpropanamide], the Emax under setting [1] was found to be 44.2%. The same compound showed an EC50 under setting [2] of 18.6 nM.

The EC50 is the concentration at which the effect is half-maximal. A high value points to weaker potency.

The values above are taken from patent US7968577B2 (Bristol-Myers Squibb Company, priority 2006, dated 2011).
